Test results taken from patent US9023616B2, “Oil producing microbes and method of modification thereof” (DSM Nutritional Products AG, priority 2006, dated 2015).

Columns and labels:
[1] = tested on: ONC-T18; assay: Fatty acid production antagonist supplementation of ONC-T18 culture, fatty acid profile by FAME GC-FID; type: cell-based, Thraustochytrium sp. ONC-T18; settings: for DHA accumulated in ONC-T18, change versus control (in words): antagonist added to medium; for adrenic acid, lipid as percentage of total fatty acid / arachidic acid, lipid as percentage of total fatty acid / arachidonic acid, lipid as percentage of total fatty acid / behenic acid, lipid as percentage of total fatty acid / docosadienoic acid, lipid as percentage of total fatty acid / docosahexaenoic acid, lipid as percentage of total fatty acid / docosapentaenoic acid n-3, lipid as percentage of total fatty acid / docosapentaenoic acid n-6, lipid as percentage of total fatty acid / eicosadienoic acid, lipid as percentage of total fatty acid / eicosapentaenoic acid, lipid as percentage of total fatty acid / eicosatetraenoic acid, lipid as percentage of total fatty acid / eicosatrienoic acid, lipid as percentage of total fatty acid / eicosenoic acid, lipid as percentage of total fatty acid / heneicosapentaenoic acid, lipid as percentage of total fatty acid / hexacosanoic acid, lipid as percentage of total fatty acid / homo-gamma-linolenic acid, lipid as percentage of total fatty acid / lignoceric acid, lipid as percentage of total fatty acid / margaric acid, lipid as percentage of total fatty acid / myristic acid, lipid as percentage of total fatty acid / myristoleic acid, lipid as percentage of total fatty acid / nervonic acid, lipid as percentage of total fatty acid / oleic acid, lipid as percentage of total fatty acid / palmitic acid, lipid as percentage of total fatty acid / palmitoleic acid, lipid as percentage of total fatty acid / pentadecanoic acid, lipid as percentage of total fatty acid / pentadecenoic acid, lipid as percentage of total fatty acid / stearic acid, lipid as percentage of total fatty acid / vaccenic acid, lipid as percentage of total fatty acid: presence of the antagonist, oleic acid without glucose
Description: Media containing 25 g/l sea salt and 1 g/l yeast extract was autoclaved at 120° C. for 20 minutes. Sterilized glucose was added to the media at a concentration of 9 g/l. Sethoxydim (Supleco) was dissolved in dimethyl sulfoxide at a concentration of 5 mg/ml was then added to the media at to represent a final concentration of 100 µM. 1 ml of a 24 hour pre-culture of ONC-T 18 that had been cultured in the same media was added. Culturing was carried out in a shaker (130 rpm) for four days at room temperature. After the incubation period, cells were harvested by centrifugation at 4300 rpm for 10 minutes. The cell pellets were then freeze-dried, weighed and the oil was extracted from the cells.
(§1) The lipids were extracted and derivatized to fatty acid methyl esters (FAME) for gas chromatography analysis (GC). Transesterification and extraction was done using 200 mg freeze dried cells, with C19:0 as internal standard, added transesterification reaction mix (methanol:hydrochloric acid:chloroform, 10:1:1) mixed and heated at 90° C. for 2 hours, then allowed to cool at room temperature. FAMEs were extracted by adding 1 ml water, and 2 ml hexane:chloroform (4:1), and allow organic and aqueous phases to separate. The organic layer was extracted and treated with 0.5 g of anhydrous sodium sulfate to remove particulates and residual water. The organic solvents were evaporated under a stream of argon. The FAMEs were re-suspended in 5 ml of iso-octane and analyzed by GC-FID. The percent conversion was calculated by dividing the product produced by the sum of (the product produced plus the substrate added) and then multiplying by 100.
Media containing 6 g/l sea salt, 2 g/l yeast extract, and 8 g/l L-glutamic acid monosodium salt hydrate was autoclaved at 120° C. for 20 minutes. Sterilized D+-glucose was then added to this media at a concentration of 40 g/l. Cerulenin dissolved in ethanol at a concentration of 5 mg/ml was added to 250 ml flask and the solvent was evaporated for 1 hour prior to adding the media to the flask. The amount of cerulenin in the flask represented a final concentration of 20 mg/l. ONC-T18 was then added to the medium from a plate culture and culturing occurred in a shaker (130 rpm) at room temperature for four days. After the incubation period, cells were harvested by centrifugation at 4300 rpm for 10 minutes, washed once with distilled water, and then centrifuged again at 4300 rpm for 10 minutes. The cell pellets were then freeze-dried, weighed and the oil was extracted from the cells.
as §1, with “produced+the” for “produced plus the”
Media containing 6 g/l sea salt, 2 g/l yeast extract, and 8 g/l L-glutamic acid monosodium salt hydrate was autoclaved at 120° C. for 20 minutes. Sterilized D+-glucose wad then added at a concentration of 5 g/l or was not added to the media. Oleic acid was added to the media to represent a final concentration of 2 ml/l. […]

[2] = tested on: ONC-T18; assay: Carotenoid content of ONC-T18 exposed to Norflurazon; type: cell-based, Thraustochytrium sp. ONC-T18
Description: Cells were harvested by centrifugation at 3800×g and washed with phosphate buffered saline. Then resuspended in 10× volume of acetone (Sigma-Aldrich, St Louis, Mo., USA), agitated for 5 minutes at 200 RPM, centrifuged at 3,800×g for 5 mins and concentrated to dryness by N2 evaporation. Followed by resuspension in a minimal amount of 10% acetone in hexane prior to HPLC analysis. Identifications were carried out on an Agilent 1100 HPLC (Agilent, Palo Alto, Calif., USA) equipped with a variable wavelength detector set at 470 nm. Samples were injected through a Symmetry C18 guard column (Waters, Milford, Mass., USA) to a Bondclone C18 reverse-phase column (Phenomenex, Torrance, Calif., USA; […] particles; 3.9×300 mm i.d.). The injection volume was 10 μl and a flow of 1 ml min^−1 10% acetone in hexane over a 25 minute period was used. Carotenoid identity was further confirmed with mass spectrometry analysis (Micromass ESI-QT of MS, Waters, Milford, Mass., USA). Quantitative data for each carotenoid was based on the development of a calibration curve using standards (astaxanthin, zeaxanthin, canthaxanthin, echinenone and β-carotene) and comparing peak area with defined concentrations.

[3] = tested on: Schizochytrium limacinum SR21; settings: dose dependant; cited from earlier work
[4] = tested on: ONC-T18; assay: 13C labeled oleic acid incorporation into polyunsaturated fatty acids; type: cell-based, Thraustochytrium sp. ONC-T18; settings: added to culture medium

Row | Compound | adrenic acid, lipid as percentage of total fatty acid [1] | arachidic acid, lipid as percentage of total fatty acid [1] | arachidonic acid, lipid as percentage of total fatty acid [1] | behenic acid, lipid as percentage of total fatty acid [1] | docosadienoic acid, lipid as percentage of total fatty acid [1] | docosahexaenoic acid, lipid as percentage of total fatty acid [1] | docosapentaenoic acid n-3, lipid as percentage of total fatty acid [1] | docosapentaenoic acid n-6, lipid as percentage of total fatty acid [1] | eicosadienoic acid, lipid as percentage of total fatty acid [1] | eicosapentaenoic acid, lipid as percentage of total fatty acid [1] | eicosatetraenoic acid, lipid as percentage of total fatty acid [1] | eicosatrienoic acid, lipid as percentage of total fatty acid [1] | eicosenoic acid, lipid as percentage of total fatty acid [1] | heneicosapentaenoic acid, lipid as percentage of total fatty acid [1] | hexacosanoic acid, lipid as percentage of total fatty acid [1] | homo-gamma-linolenic acid, lipid as percentage of total fatty acid [1] | lignoceric acid, lipid as percentage of total fatty acid [1] | margaric acid, lipid as percentage of total fatty acid [1] | myristic acid, lipid as percentage of total fatty acid [1] | myristoleic acid, lipid as percentage of total fatty acid [1] | further results
1 | CNc1cnn(-c2cccc(C(F)(F)F)c2)c(=O)c1Cl [norflurazon] | 0.17% | 0.16% | 0.19% | 0.05% | 0.03% | 20.61% | 0.19% | 5.23% | 0.13% | 0.76% | 0.24% | 0.00% | 0.02% | 0.00% | 0.00% | 0.18% | 0.00% | 1.03% | 11.08% | 0.12% | DHA accumulated in ONC-T18, change versus control (in words) [1]: increase in the content and proportion of DHA; DHA accumulated in ONC-T18, change versus control (in words) ([1]; listed as Norflurazon): DHA increase; proportion of PUFA in ONC-T18 fatty acid profile (in words) ([1]; increasing amount added): proportion of PUFA increased; nervonic acid, lipid as percentage of total fatty acid [1]: 0.00%; oleic acid, lipid as percentage of total fatty acid [1]: 0.00%; palmitic acid, lipid as percentage of total fatty acid [1]: 40.61%; palmitoleic acid, lipid as percentage of total fatty acid [1]: 10.65%; pentadecanoic acid, lipid as percentage of total fatty acid [1]: 3.16%; pentadecenoic acid, lipid as percentage of total fatty acid [1]: 0.33%; stearic acid, lipid as percentage of total fatty acid [1]: 1.52%; vaccenic acid, lipid as percentage of total fatty acid [1]: 3.53%; carotenoid content of ONC-T18 (in words) [2]: carotenoid content decreased
2 | Cc1ccc(C(=O)O)cc1 [p-toluic acid] |  |  |  |  |  |  |  |  |  |  |  |  |  |  |  |  |  |  |  |  | EPA concentration (in words) [3]: increasing the EPA concentration; omega-6 DPA concentration (in words) [3]: reducing the omega-6 DPA concentration
3 | CCC/C(=N\OCC)C1=C(O)CC(CC(C)SCC)CC1=O (centres unmarked) [sethoxydim] | 0.00% | 0.2% | 0.20% | 0.00% | 0.00% | 19.31% | 0.24% | 5.26% | 0.14% | 0.78% | 0.37% | 0.00% | 0.00% | 1.09% | 0.20% | 0.10% | 0.00% | 1.49% | 10.97% | 0.03% | DHA accumulated in ONC-T18, change versus control (in words) [1]: increase in the content and proportion of DHA; nervonic acid, lipid as percentage of total fatty acid [1]: 0.00%; oleic acid, lipid as percentage of total fatty acid [1]: 0.18%; palmitic acid, lipid as percentage of total fatty acid [1]: 40.52%; palmitoleic acid, lipid as percentage of total fatty acid [1]: 9.18%; pentadecanoic acid, lipid as percentage of total fatty acid [1]: 5.5%; pentadecenoic acid, lipid as percentage of total fatty acid [1]: 0.53%; stearic acid, lipid as percentage of total fatty acid [1]: 1.45%; vaccenic acid, lipid as percentage of total fatty acid [1]: 2.48%
4 | Cc1ccccc1C(=O)O [toluic acid] | 0.46% | 0.23% | 0.90% | 0.00% | 0.06% | 23.03% | 0.54% | 5.95% | 0.79% | 2.95% | 0.36% | 0.03% | 0.14% | 0.39% | 0.00% | 0.17% | 0.03% | 2.69% | 11.19% | 0.00% | nervonic acid, lipid as percentage of total fatty acid [1]: 0.18%; oleic acid, lipid as percentage of total fatty acid [1]: 0.11%; palmitic acid, lipid as percentage of total fatty acid [1]: 26.90%; palmitoleic acid, lipid as percentage of total fatty acid [1]: 2.36%; pentadecanoic acid, lipid as percentage of total fatty acid [1]: 14.93%; pentadecenoic acid, lipid as percentage of total fatty acid [1]: 0.27%; stearic acid, lipid as percentage of total fatty acid [1]: 1.59%; vaccenic acid, lipid as percentage of total fatty acid [1]: 3.68%
5 | ^13C labeled oleic acid |  |  |  |  |  |  |  |  |  |  |  |  |  |  |  |  |  |  |  |  | fate of 13C carbon from enriched oleic acid (in words) [4]: found in subsequent polyunsaturated fatty acids
